Test results published in EP1285920A1, “C10 Ester sustituted taxanes as antitumor agents” (Florida State University Research Foundation, Inc., priority 2001, dated 2003).
Read-outs that look alike come from different tables or passages of the source.

Key:
HCT116 = assay: In Vitro cytotoxicity measured by the cell colony formation assay; type: cell-based, human; settings: Homo sapiens, HCT-116; read-out: IN VITRO ID 50 HCT116
Outline: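 Four hundred cells per dish in McCoy's 5a medium with 10% FBS were allowed to attach for 5 h at 37 °C. They were then exposed to compound for 72 h at 37 °C, added as a 10× stock made fresh in medium. After HBSS rinsing and refeeding, colonies were counted after 7 days.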

HCT116 carcinoma = settings: for Toxic Deaths: mg/kg: Taxol 36 (split doses), 0503 72.6, 0536 49, 0663 159, 0670 123, 0687 159, 0706 108, 0908 159, 0947 76.9, 0951 72.6, 0983 72.6, 0999 49, 1003 49, 1011 108
Description: Antitumor compounds were formulated for an i.v. dosing regime and were prepared in the following vehicle: 5% ethanol, 5% Cremophor and 90% isotonic saline.
(§1) The antitumor compounds were given intravenously in a single maximum tolerated dose (MTD) appropriate for each compound. […] The MTDs for the antitumor compounds were calculated from earlier single dose data for mice receiving i.v. administration of these compounds. All vehicle control animals in the split dosing regimes were dosed twice intravenously with half of the total volume being given separated by one hour. The study was terminated on Day 60.
A complete response is obtained if the tumor is not palpable at the end of the study.

MX-1 carcinoma = settings: for Toxic Deaths: mg/kg: Taxol 36 (split dose), 0503 72.6, 0536 49, 0663 159, 0670 123, 0687 159, 0706 108, 0908 159, 0947 76.9, 0951 72.6, 0983 67.4, 0999 49, 1003 49, 1011 108; for treated animals with durable complete responses and partial responses: single i.v. MTD
Description: Thirteen antitumor compounds were formulated for an i.v. dosing regime (single i.v. bolus, qd x 1 schedule) prepared in the following vehicle: 5% ethanol, 5% Cremophor and 90% isotonic saline.
as §1, with “half” for “half of”
A complete response is obtained if the tumor is not palpable at the end of the study. […]

A2780 ovarian carcinoma = settings: for MDS: i.v. qd x 1 (compounds estimated MTD; Taxol 24 mg/kg split; Taxotere 70 mg/kg), days until tumor 2.0 g, ended Day 60
Description: Dosing was initiated on Day 1. […] Taxotere was given i.v. on a qd x 1 schedule at a dose of 70 mg/kg. […] The study was terminated on Day 60. Treatment groups are detailed in Table 7.

[1] = i.v. qd x 1 at MTD, 5 mice/group, Day 60, doses as in E3
[2] = number of 5 mice, tumor did not reach 2.0 g by end of study, i.v. qd x 1 at MTD, Day 60, doses as in E3
[3] = number of 5 mice, tumor not palpable at end of study, i.v. qd x 1 at MTD, Day 60, doses as in E3
[4] = number of 5 mice, tumor smaller than on Day 1, i.v. qd x 1 at MTD, Day 60, doses as in E3
[5] = number of 5 mice, i.v. qd x 1 at MTD, Day 60, doses as in E3
[6] = number of 5 mice, i.v. qd x 1 at MTD, Day 60
[7] = i.v. qd x 1 at MTD, 6 mice/group, Day 60, doses as in E17
[8] = number of 6 mice, tumor did not reach 2.0 g by end of study, i.v. qd x 1 at MTD, Day 60, doses as in E17
[9] = number of 6 mice, tumor not palpable at end of study, i.v. qd x 1 at MTD, Day 60, doses as in E17
[10] = number of 6 mice, tumor smaller than on Day 1, i.v. qd x 1 at MTD, Day 60, doses as in E17
[11] = number of 6 mice, i.v. qd x 1 at MTD, Day 60, doses as in E17
[12] = number of 6 mice, i.v. qd x 1 at MTD, Day 60
[13] = mean days of survival until neoplasm reached 2.0 g, i.v. qd x 1 at estimated MTD (Taxol 24 mg/kg, Taxotere 70 mg/kg, 0983 72.6 mg/kg), 5 mice/group (Taxotere 6), terminated Day 60
[14] = number of mice, i.v. qd x 1 at estimated MTD (Taxol 24 mg/kg, Taxotere 70 mg/kg, 0983 72.6 mg/kg), 5 mice/group (Taxotere 6)
[15] = number of mice, i.v. qd x 1 at estimated MTD (Taxol 24 mg/kg, Taxotere 70 mg/kg, 0983 72.6 mg/kg), 5 mice/group (Taxotere 6), Day 60
[16] = tumor scoring system, i.v. qd x 1 at estimated MTD (Taxol 24 mg/kg, Taxotere 70 mg/kg, 0983 72.6 mg/kg), 5 mice/group (Taxotere 6)
[17] = A2780, i.v. qd x 1, five mice per group

Row | Compound | IC50 (HCT116) [nM] | Mean Score (HCT116 carcinoma; [1]) | Stable Disease (HCT116 carcinoma; [2]) | Complete Response (HCT116 carcinoma; [3]) | Partial Response (HCT116 carcinoma; [4]) | Survivors (HCT116 carcinoma; [5]) | Toxic Deaths (HCT116 carcinoma; [6]) | Mean Score (MX-1 carcinoma; [7]) | Stable Disease (MX-1 carcinoma; [8]) | Complete Response (MX-1 carcinoma; [9]) | Partial Response (MX-1 carcinoma; [10]) | Survivors (MX-1 carcinoma; [11]) | Toxic Deaths (MX-1 carcinoma; [12]) | MDS (A2780 ovarian carcinoma; A2780) [days] | Toxic Deaths (A2780 ovarian carcinoma; [14]) | Survivors (A2780 ovarian carcinoma; [15]) | Partial Response (HCT116 carcinoma; iv) | Complete Response (HCT116 carcinoma; iv, 1440 h) | Mean Score (HCT116 carcinoma; iv, 1440 h) | total response rate (A2780 ovarian carcinoma; [17]) | other results
1 | CCC(=O)O[C@H]1C(=O)[C@@]2(C)[C@H]([C@H](OC(=O)c3ccccc3)[C@]3(O)C[C@H](OC(=O)[C@H](O)[C@@H](NC(=O)OC(C)(C)C)c4ccco4)C(C)=C1C3(C)C)[C@]1(OC(C)=O)CO[C@@H]1C[C@@H]2O [Compound 0536] | < 1 | 9.2 ± 0.2 | 0 | 1 | 4 | 5 | 0 | 6.7 ± 2.1 | 0 | 4 | 0 | 4 | 2 | 42.6 | 0 | 0 | – | – | – | – | antitumor activity / tumor response (MX-1 carcinoma; MX-1, i.v. qd x 1, Day 60): complete and durable tumor regressions in all the treated mice; antitumor activity (A2780 ovarian carcinoma; A2780, i.v. qd x 1): did not cause any complete responses, partial responses, or cases of stable disease; MDS (n) (A2780 ovarian carcinoma; [13]): 42.6 ± 3.3 (5) days; Complete Response (A2780 ovarian carcinoma; [15]): 0; Partial Respons (A2780 ovarian carcinoma; [15]): 0; Stable Disease (A2780 ovarian carcinoma; [15]): 0; Mean Score (A2780 ovarian carcinoma; [16]): 3 ± 0
2 | CCC(=O)O[C@H]1C(=O)[C@@]2(C)[C@H]([C@H](OC(=O)c3ccccc3)[C@]3(O)C[C@H](OC(=O)[C@H](O)[C@@H](NC(=O)c4ccccc4)c4ccco4)C(C)=C1C3(C)C)[C@]1(OC(C)=O)CO[C@@H]1C[C@@H]2O [Compound 0663] | < 1 | – | – | – | – | 4 | 1 | – | – | – | – | 5 | 0 | – | – | – | 2 | 2 | 7.6 ± 1.9 | at least 20% | Stable Disease (HCT116 carcinoma; iv, 1440 h): 0; Partial Response (MX-1 carcinoma; iv): 0; Complete Response (MX-1 carcinoma; iv, 1440 h): 4; Mean Score (MX-1 carcinoma; iv, 1440 h): 7.7 ± 1.5; Stable Disease (MX-1 carcinoma; iv, 1440 h): 1; survival extension compared to Group 1 controls (A2780 ovarian carcinoma; A2780, i.v. qd x 1): 214%
3 | CC(=O)O[C@@]12CO[C@@H]1C[C@H](O)[C@@]1(C)C(=O)[C@H](OC(=O)C3CC3)C3=C(C)[C@@H](OC(=O)[C@H](O)[C@@H](NC(=O)c4ccccc4)c4ccco4)C[C@@](O)([C@@H](OC(=O)c4ccccc4)[C@H]21)C3(C)C [Compound 0908] | < 1 | 9.2 ± 0.2 | 0 | 1 | 4 | 5 | 0 | 9.7 ± 0.3 | 0 | 5 | 1 | 6 | 0 | 43.1 | 1 | 2 | – | – | – | at least 20% | treated animals with durable complete responses and partial responses (MX-1 carcinoma; MX-1): 100%; survival extension compared to Group 1 controls (A2780 ovarian carcinoma; A2780, i.v. qd x 1): 268%; Toxic Deaths (A2780 ovarian carcinoma; [17]): one; MDS (n) (A2780 ovarian carcinoma; [13]): 43.1 ± 8.0 (2) days; Complete Response (A2780 ovarian carcinoma; [15]): 0; Partial Respons (A2780 ovarian carcinoma; [15]): 1; Stable Disease (A2780 ovarian carcinoma; [15]): 1; Mean Score (A2780 ovarian carcinoma; [16]): 3.8 ± 1.5
4 | CCCC(=O)O[C@H]1C(=O)[C@@]2(C)[C@H]([C@H](OC(=O)c3ccccc3)[C@]3(O)C[C@H](OC(=O)[C@H](O)[C@H](C=C(C)C)NC(=O)OC(C)(C)C)C(C)=C1C3(C)C)[C@]1(OC(C)=O)CO[C@@H]1C[C@@H]2O [Compound 0947] | < 1 | – | – | – | – | 5 | 0 | – | – | – | – | 3 | 2 | – | 1 | 2 | 4 | 1 | 9.2 ± 0.2 | at least 20% | Stable Disease (HCT116 carcinoma; iv, 1440 h): 0; Partial Response (MX-1 carcinoma; iv): 0; Complete Response (MX-1 carcinoma; iv, 1440 h): 3; Mean Score (MX-1 carcinoma; iv, 1440 h): 5.5 ± 2.1; Stable Disease (MX-1 carcinoma; iv, 1440 h): 0; partial responses (A2780 ovarian carcinoma; [17]): 2; Mean Score (A2780 ovarian carcinoma; iv, 72.6 mg/kg): 4.8 ± 1.8; Complete Response (A2780 ovarian carcinoma; iv, 72.6 mg/kg, 1440 h): 0; MDS (n) (A2780 ovarian carcinoma; iv, 72.6 mg/kg, 1440 h): 32.7 ± 5.4 (2) days; Partial Respons (A2780 ovarian carcinoma; iv, 72.6 mg/kg, 1440 h): 2; Stable Disease (A2780 ovarian carcinoma; iv, 72.6 mg/kg, 1440 h): 0
5 | CCCC(=O)O[C@H]1C(=O)[C@@]2(C)[C@H]([C@H](OC(=O)c3ccccc3)[C@]3(O)C[C@H](OC(=O)[C@H](O)[C@@H](NC(=O)OC(C)(C)C)c4ccccn4)C(C)=C1C3(C)C)[C@]1(OC(C)=O)CO[C@@H]1C[C@@H]2O [Compound 0951] | < 1 | 9.6 ± 0.2 | 0 | 3 | 2 | 5 | 0 | 9.5 ± 0.5 | 0 | 5 | 1 | 6 | 0 | 43.2 | – | – | – | – | – | – | treated animals with durable complete responses and partial responses (MX-1 carcinoma; MX-1): 100%; antitumor activity (A2780 ovarian carcinoma; A2780, i.v. qd x 1): no tumor shrinkage; survival extension compared to Group 1 controls (A2780 ovarian carcinoma; A2780, i.v. qd x 1): 269%; Stable Disease (A2780 ovarian carcinoma; [17]): one
6 | CCCC(=O)O[C@H]1C(=O)[C@@]2(C)[C@H]([C@H](OC(=O)c3ccccc3)[C@]3(O)C[C@H](OC(=O)[C@H](O)[C@@H](NC(=O)OC(C)(C)C)c4ccoc4)C(C)=C1C3(C)C)[C@]1(OC(C)=O)CO[C@@H]1C[C@@H]2O [Compound 0999] | < 1 | 9.2 ± 0.2 | 0 | 1 | 4 | 5 | 0 | 8.2 ± 1.2 | 0 | 4 | 1 | 5 | 0 | – | – | – | – | – | – | at least 20% | –
7 | CCCC(=O)O[C@H]1C(=O)[C@@]2(C)[C@H]([C@H](OC(=O)c3ccccc3)[C@]3(O)C[C@H](OC(=O)[C@H](O)[C@@H](NC(=O)OC(C)(C)C)c4cccs4)C(C)=C1C3(C)C)[C@]1(OC(C)=O)CO[C@@H]1C[C@@H]2O [Compound 1003] | < 1 | – | – | – | – | 5 | 0 | – | – | – | – | 4 | 0 | – | – | – | 3 | 2 | 9.4 ± 0.2 | at least 20% | Stable Disease (HCT116 carcinoma; iv, 1440 h): 0; Partial Response (MX-1 carcinoma; iv): 0; Complete Response (MX-1 carcinoma; iv, 1440 h): 4; MDS (n) (MX-1 carcinoma; iv, 1440 h): 29.1 ± 10.8 (2) days; Mean Score (MX-1 carcinoma; iv, 1440 h): 7.3 ± 1.7; Stable Disease (MX-1 carcinoma; iv, 1440 h): 0; partial responses (A2780 ovarian carcinoma; [17]): 2
